Laboratory results reported in publication PMC8069832, “New Amides and Phosphoramidates Containing Selenium: Studies on Their Cytotoxicity and Antioxidant Activities in Breast Cancer” (Antioxidants, 2021).
Read-outs that look alike come from different tables or passages of the source.

Tests used:
HTB-54 = assay: cells; assay type: cell-based; details: Homo sapiens; for CC50: read-out: LC50 HTB54; for GI50: read-out: GI50 HTB54; for IC (TGI): read-out: TGI HTB54
Experimental: (§1) Cell lines were provided by the European Collection of Cell Cultures (ECACC) or by the American Type Culture Collection (ATCC). Seven cell lines were used: MCF-7 (breast adenocarnicoma), 184B5 (nonmalignant, mammary gland derived), CCRF-CEM (lymphoblastic leukemia), HT-29 (colon carcinoma), HTB-54 (lung carcinoma), BEAS-2B (nonmalignant, derived from the bronchial epithelium) and PC-3 (prostate carcinoma). MCF-7, CCRF-CEM, HT-29, HTB-54, BEAS-2B and PC-3 cell lines were grown in RPMI medium (Gibco) supplemented with 10% fetal bovine serum (FBS; Gibco), 100 units/mL penicillin and […] streptomycin (Gibco). 184B5 cells were grown in DMEM/F12 medium supplemented with 5% FBS, 1 × ITS (Lonza), 100 nM hydrocortisone (Aldich), 2 mM sodium pyruvate (Lonza), 20 ng/mL EGF (Sigma-Aldrich), 0.3 nM trans-retinoic acid (Sigma-Aldrich), 100 units/mL penicillin and […] streptomycin. Cells were maintained at 37 °C and 5% CO2.
(§2) The cytotoxic effect of each substance was tested by the MTT method. Each compound was initially dissolved in DMSO at a concentration of 0.01 M, and serial dilutions were prepared with nonsupplemented medium. The cytotoxic effect of each compound was tested at 50 and 10 µM as a first screening. […]
(§3) A total of 1 × 10^4 cells/well in 96-well plates were treated with increasing concentrations of the corresponding compounds for 48 h at 37 °C in a humidified atmosphere containing 5% CO2. Then, cells were incubated with 50 µL of MTT (2 mg/mL stock) for 4 h. The medium was then removed by aspiration, and the formazan crystals were dissolved in […] of DMSO. […] Data were obtained from at least 3 independent experiments performed in quadruplicate. The standard error of the means (SEM) for the cytotoxic parameters was calculated applying the standard deviation formula to the mean values of each parameter for the three independent experiments performed.
(§4) . Cisplatin was used as a standard drug. […]. […] The presence of electron-withdrawing groups (-NO2, -CF3, -Cl) in the phenyl ring favored the cytotoxic activity in the amides, but in the phosphoramidates, the best results were obtained for aliphatic chains methoxy (II.1b, II.2b) and ethoxy (II.1d, II.2d). […].

PC-3 = assay: cells; assay type: cell-based; details: Homo sapiens; for LC50: read-out: LC50 PC-3; for GI50: read-out: GI50 PC-3; for IC (TGI): read-out: TGI PC-3
Experimental: as §1, §2, §3, §4

[1] = MTT cytotoxicity in nonmalignant mammary gland derived cells; assay type: cell-based; details: human; for CC50: nonmalignant cells, 48 h, read-out: LC50 184B5
Experimental: as §1, §2, §3, §4
(§5) The lack of selectivity toward cancerous cells is one of the major issues during the discovery and development of new anticancer agents. Therefore, we evaluated the cytotoxic activity of our compounds against two cell lines derived from nonmalignant breast tissue (184B5) and no malignant bronchial epithelium (BEAS-2B) (Table 2). […].

184B5 = assay: as above; assay type: cell-based; details: for GI50 / IC (TGI): Homo sapiens, 184B5, nonmalignant cells, 48 h; for GI50: read-out: GI50 184B5; for IC (TGI): read-out: TGI 184B5; for Selectivity index (SI) = GI50 (184B5)/GI50 (MCF-7): breast
Experimental: as §1, §2, §3, §4, §5

[2] = MTT cytotoxicity in nonmalignant bronchial epithelium cells; assay type: cell-based; details: human; for LC50 (50% lethal concentration): nonmalignant cells, 48 h, read-out: LC50 BEAS-2B
Experimental: as §1, §2, §3, §4, §5

BEAS-2B = assay: as above; assay type: cell-based; details: for GI50 / IC (TGI): Homo sapiens, BEAS-2B, nonmalignant cells, 48 h; for GI50: read-out: GI50 BEAS-2B; for IC (TGI): read-out: TGI BEAS-2B; for Selectivity index (SI) = GI50 (BEAS-2B)/GI50 (HTB-54): lung
Experimental: as §1, §2, §3, §4, §5

MCF-7 [3] = details: read-out: GI50 MCF-7; 48 h, average ± SEM
MCF-7 [4] = assay: cells; details: Homo sapiens, MCF7, 48 h; for activity at 10 µM: read-out: Cell growth (%) MCF-7; for GI50: read-out: GI50 MCF-7, 48 h, average ± SEM; for CC50: read-out: LC50 MCF-7; for IC (TGI): read-out: TGI MCF-7
CCRF-CEM = assay: cells; details: Homo sapiens, 48 h; for activity at 10 µM: read-out: Cell growth (%) CCRF-CEM; for GI50: read-out: GI50 CCRF-CEM; for CC50: read-out: LC50 CCRF-CEM; for IC (TGI): read-out: TGI CCRF-CEM
HT-29 = assay: cells; details: Homo sapiens, HT-29, 48 h; for activity at 10 µM: read-out: Cell growth (%) HT-29; for GI50: read-out: GI50 HT-29; for CC50: read-out: LC50 HT-29; for IC (TGI): read-out: TGI HT-29
[5] = DPPH radical scavenging assay; details: for DPPH activity inhibition: after 30 min
Experimental: The DPPH (1,1-diphenyl-2-picrylhydrazyl radical) assay measures the hydrogen donation ability of the antioxidant to convert the stable DPPH free radical into 1,1-diphenyl-2-(2,4,6-trinitrophenyl)-hydrazine. After radical reaction with the compounds, a decrease in the absorbance was detected at 517 nm, which is accompanied by a change of color from violet to light-yellow. The target compounds were dissolved in methanol to make 1 mg/mL stock solutions, which were diluted to five concentrations as test samples. Ascorbic acid was used as a standard, and the experiment was carried out on 96-well plates. The DPPH solution was prepared at a 100 µM concentration. For each test, 100 µL of DPPH solution was added to 100 µL of methanolic solution containing the tested derivatives, and the absorbance was determined at different time points. All the measurements were carried out in triplicate. Results were expressed as the percentage of the radical scavenged, calculated using the following formula:(1) % DPPH radical scavenging=Acontrol − Asample/Acontrol × 100 where Acontrol refers to the absorbance of the negative control, and Asample refers to the absorbance of the tested compounds. Results are expressed as a percentage of DPPH radical scavenged ± SEM.
. Ascorbic acid and Trolox were used as radical scavenger gold standards. […]. No correlation was found for either structure–radical scavenging activity or antitumor–radical scavenging activity, except for compound I.2f, one of the selected cytotoxic agents. To further confirm this antioxidant activity, three compounds (I.1e, I.1g and I.2i) were also evaluated as DPPH radical scavengers at a lower concentration of 0.003 mg/mL (Figure 3B).

Structure (SMILES)	GI50 (HTB-54; HTB-54, 48 h, average ± SEM) [µM]	IC (TGI) (HTB-54; HTB-54, 48 h, average ± SEM) [µM]	GI50 (PC-3; PC-3, 48 h, average ± SEM) [µM]	IC (TGI) (PC-3; PC-3, 48 h, average ± SEM) [µM]	GI50 (184B5) [µM]	IC (TGI) (184B5) [µM]	GI50 (BEAS-2B) [µM]	IC (TGI) (BEAS-2B) [µM]	activity at 10 µM (MCF-7 [4]) [%]	GI50 (MCF-7 [4]) [µM]	CC50 (MCF-7 [4]) [µM]	IC (TGI) (MCF-7 [4]) [µM]	activity at 10 µM (CCRF-CEM) [%]	GI50 (CCRF-CEM) [µM]	CC50 (CCRF-CEM) [µM]	IC (TGI) (CCRF-CEM) [µM]	activity at 10 µM (HT-29) [%]	GI50 (HT-29) [µM]	CC50 (HT-29) [µM]	IC (TGI) (HT-29) [µM]	further results
N#C[Se]c1ccc(NC(=O)c2ccc([N+](=O)[O-])cc2)cc1 [I.2e]	> 100	> 100	> 100	> 100	7.13	> 100	> 100	> 100	33.4	< 1	> 100	54.4 ± 2.7	50.3	31.6 ± 0.4	> 100	> 100	35.9	0.8 ± 0.1	> 100	58.2 ± 6.4	CC50 (HTB-54; HTB-54, 48 h): > 100 µM; LC50 (PC-3; PC-3, 48 h): > 100 µM; LC50 (50% lethal concentration) at 48 h [1]: > 100 µM; LC50 (50% lethal concentration) at 48 h [2]: > 100 µM; GI50 (MCF-7 [3]): 0.6 ± 0.1 µM
N#C[Se]c1ccc(NC(=O)c2cccs2)cc1 [I.2i]	–	–	–	–	–	–	–	–	74.5	–	–	–	43.6	–	–	–	85.3	–	–	–	DPPH radical scavenging activity ([5]; 0.003 mg/mL): some moderate effect was observed; DPPH radical scavenging activity ([5]; 0.03 mg/mL, 0-120 min): the most active radical scavenger; DPPH activity inhibition ([5]; 0.03 mg/mL): greater than 35%
N#C[Se]c1ccc(NC(=O)c2ccno2)cc1 [I.2j]	–	–	–	–	–	–	–	–	91	–	–	–	48.4	–	–	–	90.8	–	–	–	DPPH activity inhibition ([5]; 0.03 mg/mL): greater than 35%
COP(=O)(Nc1ccc([Se][Se]c2ccc(NP(=O)(OC)OC)cc2)cc1)OC [II.1b]	7.2 ± 3.2	37.1 ± 3.2	17.1 ± 1.7	46.9 ± 2.3	5.75	7.2	6.48	41.3	-13.9	4.3 ± 0.6	56.9 ± 5.4	8.8 ± 0.1	-74.1	2 ± 0.1	8 ± 2.8	3.9 ± 0.4	70.7	20 ± 3.1	74.9 ± 0.6	47.4 ± 2	CC50 (HTB-54; HTB-54, 48 h, average ± SEM): 76 ± 4.2 µM; LC50 (PC-3; PC-3, 48 h, average ± SEM): 76.6 ± 2.5 µM; CC50 [1]: 8.65 µM; Selectivity index (SI) = GI50 (184B5)/GI50 (MCF-7) (184B5): 1.36; LC50 (50% lethal concentration) [2]: > 100 µM; Selectivity index (SI) = GI50 (BEAS-2B)/GI50 (HTB-54) (BEAS-2B): 0.84
CCOP(=O)(Nc1ccc([Se][Se]c2ccc(NP(=O)(OCC)OCC)cc2)cc1)OCC [II.1d]	5.9 ± 0.3	7.7 ± 0.2	6.4 ± 0.2	8.6 ± 0.2	5.45	7.01	5.43	6.98	-57.5	2.3 ± 0.2	8.8 ± 0.8	4.2 ± 0.3	-86.7	0.4 ± 0.2	3.4 ± 0.2	1.7 ± 0.2	-69.8	1.7 ± 0.1	4.3 ± 0.1	3 ± 0.1	CC50 (HTB-54; HTB-54, 48 h, average ± SEM): 9.4 ± 0.1 µM; LC50 (PC-3; PC-3, 48 h, average ± SEM): 35.1 ± 4.9 µM; CC50 [1]: 8.58 µM; Selectivity index (SI) = GI50 (184B5)/GI50 (MCF-7) (184B5): 2.38; LC50 (50% lethal concentration) [2]: 8.54 µM; Selectivity index (SI) = GI50 (BEAS-2B)/GI50 (HTB-54) (BEAS-2B): 0.92
